Reference: ChEMBL document CHEMBL6153028, “Understanding the synergistic sensitization of natural products and antibiotics: An effective strategy to combat MRSA” (2025)

How the values were obtained:
Assay type in all cases: functional
[1] = test system: Staphylococcus aureus; experiment: Synergistic antimicrobial activity against Staphylococcus aureus DSM 1104 planktonic cells assessed as fractional inhibitory concentration index in presence of oxacillin by checkerboard assay
[2] = test system: Staphylococcus aureus; experiment: Synergistic antimicrobial activity against Staphylococcus aureus DSM 1104 planktonic cells assessed as fractional inhibitory concentration index in presence of gentamicin by checkerboard assay
[3] = test system: Staphylococcus aureus; experiment: Synergistic antimicrobial activity against methicillin-resistant Staphylococcus aureus CCARM 3089 assessed as fractional inhibitory concentration index in presence of ciprofloxacin incubated for 24 hrs by checkerboard assay
[4] = test system: Staphylococcus aureus; experiment: Synergistic antimicrobial activity against methicillin resistant Staphylococcus aureus assessed as fractional inhibitory concentration index incubated for 24 hrs in presence of ciprofloxacin by checkerboard assay
[5] = test system: Staphylococcus aureus; experiment: Synergistic antibacterial activity against methicillin resistant Staphylococcus aureus assessed as fractional inhibitory concentration index in presence of erythromycin by checkerboard assay
[6] = test system: Staphylococcus aureus; experiment: Synergistic antibacterial activity against methicillin resistant Staphylococcus aureus assessed as fractional inhibitory concentration index in presence of streptomycin incubated for 24 hrs by checkerboard assay
[7] = test system: Staphylococcus aureus; experiment: Synergistic antibacterial activity against methicillin resistant Staphylococcus aureus assessed as fractional inhibitory concentration index in presence of oxacillin incubated for 24 hrs by checkerboard assay
[8] = test system: Staphylococcus aureus; experiment: Synergistic antibacterial activity against methicillin resistant Staphylococcus aureus assessed as fractional inhibitory concentration index in presence of penicillin incubated for 24 hrs by checkerboard assay
[9] = test system: Staphylococcus aureus; experiment: Synergistic antibacterial activity against methicillin resistant Staphylococcus aureus assessed as fractional inhibitory concentration index in presence of ampicillin incubated for 24 hrs by checkerboard assay
[10] = test system: Staphylococcus aureus; experiment: Synergistic antimicrobial activity against methicillin-resistant Staphylococcus aureus assessed as fractional inhibitory concentration index in presence of chloramphenicol incubated for 24 hrs by checkerboard assay
[11] = test system: Staphylococcus aureus; experiment: Synergistic antimicrobial activity against methicillin-resistant Staphylococcus aureus assessed as fractional inhibitory concentration index in presence of levofloxacin by checkerboard assay
[12] = test system: Staphylococcus aureus; experiment: Synergistic antimicrobial activity against methicillin-resistant Staphylococcus aureus assessed as fractional inhibitory concentration index in presence of vancomycin by checkerboard assay
[13] = test system: Staphylococcus aureus; experiment: Synergistic antibacterial activity against methicillin resistant Staphylococcus aureus assessed as fractional inhibitory concentration index in presence of penicillin by checkerboard assay
[14] = test system: Staphylococcus aureus; experiment: Synergistic antibacterial activity against methicillin resistant Staphylococcus aureus assessed as fractional inhibitory concentration index in presence of cephradine by checkerboard assay
[15] = test system: Staphylococcus aureus; experiment: Synergistic antibacterial activity against methicillin resistant Staphylococcus aureus assessed as fractional inhibitory concentration index in presence of ampicillin by checkerboard assay
[16] = test system: Staphylococcus aureus; experiment: Synergistic antimicrobial activity against methicillin-resistant Staphylococcus aureus assessed as fractional inhibitory concentration index in presence of gentamicin incubated for 24 hrs by checkerboard assay
[17] = test system: Staphylococcus aureus; experiment: Synergistic antimicrobial activity against methicillin-resistant Staphylococcus aureus assessed as fractional inhibitory concentration index in presence of minocycline incubated for 24 hrs by checkerboard assay
[18] = test system: Staphylococcus aureus; experiment: Synergistic antimicrobial activity against methicillin-resistant Staphylococcus aureus CCARM 3089 assessed as fractional inhibitory concentration index in presence of pencillin incubated for 24 hrs by checkerboard assay
[19] = test system: Staphylococcus aureus; experiment: Synergistic antimicrobial activity against methicillin-resistant Staphylococcus aureus assessed as fractional inhibitory concentration index in presence of ciprofloxacin incubated for 24 hrs by checkerboard assay
[20] = test system: Staphylococcus aureus; experiment: Synergistic antibacterial activity against methicillin resistant Staphylococcus aureus assessed as fractional inhibitory concentration index in presence of minocycline by checkerboard assay
[21] = test system: Staphylococcus aureus; experiment: Synergistic antimicrobial activity against methicillin-resistant Staphylococcus aureus CCARM 3089 assessed as fractional inhibitory concentration index in presence of Ceftiofur incubated for 24 hrs by checkerboard assay

## O=C(/C=C/c1ccc(O)cc1)CC(=O)/C=C/c1ccc(O)cc1 [BISDEMETHOXYCURCUMIN]
[1]
  fractional inhibitory concentration index (FICI): 0.51
[2]
  fractional inhibitory concentration index (FICI): 0.1

## COc1cc(CNC(=O)CCCC/C=C/C(C)C)ccc1O [CAPSAICIN]
[3]
  fractional inhibitory concentration index (FICI): 0.18

## COc1cc(/C=C/C(=O)CC(=O)/C=C/c2ccc(O)c(OC)c2)ccc1O [CURCUMIN]
[4]
  fractional inhibitory concentration index (FICI): 0.25

## COc1ccc(-c2cc(=O)c3c(O)cc(O)cc3o2)cc1O [DIOSMETIN]
[5]
  fractional inhibitory concentration index (FICI): 0.28

## CC(C)=CCc1cc([C@@H]2CC(=O)c3ccc(O)c(CC=C(C)C)c3O2)ccc1O [GLABROL]
[6]
  fractional inhibitory concentration index (FICI): 0.188

## O=C(/C=C/c1ccc(O)cc1)c1ccc(O)cc1O [ISOLIQUIRITIGENIN]
[7]
  fractional inhibitory concentration index (FICI): 0.312
[8]
  fractional inhibitory concentration index (FICI): 0.375
[9]
  fractional inhibitory concentration index (FICI): 0.375

## COc1c2ccoc2c(OC)c2oc(=O)ccc12 [ISOPIMPINELLIN]
[10]
  fractional inhibitory concentration index (FICI): <0.5
[11]
  fractional inhibitory concentration index (FICI): <0.5
[12]
  fractional inhibitory concentration index (FICI): <0.5

## O=C1C[C@@H](c2ccc(O)cc2)Oc2cc(O)ccc21 [LIQUIRTIGENIN]
[7]
  fractional inhibitory concentration index (FICI): 0.372
[9]
  fractional inhibitory concentration index (FICI): 0.375
[13]
  fractional inhibitory concentration index (FICI): 0.375

## O=c1cc(-c2ccc(O)c(O)c2)oc2cc(O)cc(O)c12 [LUTEOLIN]
[14]
  fractional inhibitory concentration index (FICI): 0.44
[15]
  fractional inhibitory concentration index (FICI): 0.125

## COc1c2ccoc2c(OCC=C(C)C)c2oc(=O)ccc12 [PHELLOPTERIN]
[16]
  fractional inhibitory concentration index (FICI): <0.5
[17]
  fractional inhibitory concentration index (FICI): 0.5

## Oc1cc(O)cc(Oc2c(O)cc(O)c3c2Oc2c(O)cc4oc5c(Oc6cc(O)cc(O)c6)c(O)cc(O)c5c4c2O3)c1 [PHLOROFUCOFUROECKOL A]
[18]
  fractional inhibitory concentration index (FICI): 0.393

## Oc1cc(O)cc(/C=C/c2ccc(O)c(O)c2)c1 [PICEATANNOL]
[19]
  fractional inhibitory concentration index (FICI): 0.375

## O=c1c(O)c(-c2ccc(O)c(O)c2)oc2cc(O)cc(O)c12 [QUERCETIN]
[20]
  fractional inhibitory concentration index (FICI): <=0.5

## O=c1c(O)cc([C@H]2Oc3cc(O)cc(O)c3C[C@H]2O)cc2c([C@H]3Oc4cc(O)cc(O)c4C[C@H]3O)cc(O)c(O)c12 [THEAFLAVIN]
[21]
  fractional inhibitory concentration index (FICI): 0.187
